Data published in US20250099420A1, “SMALL MOLECULE MODULATORS OF GPR139 COMPLEX” (University of Florida Research Foundation, Incorporated, priority 2022, published 2025).
Where two headings read alike, the source gives them in different places.

Legend:
[1] = test system: parental HEK cells; test: HEK parental Agonist Counterscreen Assay (non-transfected cells); assay type: cell-based; settings: for Averaged Max % Response (±St. Dev.): activity relative to known control
Description: The high control for the agonist counterscreen was Forskolin not acetylcholine.

[2] = biological target: T1, GPR139 (Homo sapiens, UniProt Q6DWJ6); test: GPR139 Agonist titration / agonist counterscreen assay (calcium detection, HEK-GPR139 cells); assay type: cell-based; design: expressed in transfected cells; host or cells: HEK Aequorin cells, Maxcyte transient transfection; settings: GPR139 Agonist Activity; for Averaged Max % Response (±St. Dev.): activity relative to known control; for EC50: read-out: EC50
T1 sequence (Q6DWJ6 1-353): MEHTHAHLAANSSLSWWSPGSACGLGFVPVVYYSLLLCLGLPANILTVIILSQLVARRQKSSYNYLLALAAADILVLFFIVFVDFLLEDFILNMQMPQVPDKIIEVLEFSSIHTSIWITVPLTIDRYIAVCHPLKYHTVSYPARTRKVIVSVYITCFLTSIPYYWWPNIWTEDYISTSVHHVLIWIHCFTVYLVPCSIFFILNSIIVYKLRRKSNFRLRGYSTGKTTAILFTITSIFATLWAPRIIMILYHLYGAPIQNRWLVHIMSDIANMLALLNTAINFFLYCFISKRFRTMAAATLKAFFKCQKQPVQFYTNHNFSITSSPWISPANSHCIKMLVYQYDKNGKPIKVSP
Method: GPR activity was assessed using a calcium detection assay. […] Negative control samples were treated with DMSO. […] Intracellular calcium was measured using Calcium 5.

[3] = Homo sapiens, HEK293, HEK Agonist Activity, parental non-transfected HEK cells
[4] = values printed in E-notation without unit
[5] = Homo sapiens, HEK293, HEK Agonist Activity section of Table 4 (parental HEK counterscreen)

## COc1ccc(C2(C)NC(=O)C(CC(=O)NCCc3ccccc3)C2=O)cc1 (stereo not drawn) [SR-01000918721]
[1]; HEK Agonist Activity
  Lipophilic Efficiency (logD): 2.96
  Lipophilic Efficiency (logP): 2.96
  Averaged Max % Response (±St. Dev.): 9.27 ± 15.15%
[1]; [3]
  EC50: > 14.1 µM
[2]
  Averaged Max % Response (±St. Dev.): 107.86 ± 14.78%
[2]; based on logD
  Lipophilic Efficiency (logD): 5.70
[2]; based on logP
  Lipophilic Efficiency (logP): 5.70
[2]; fitted dose-response curve
  Hill Slope: 0.48
[2]; ligand efficiency
  Efficiency Ligand: 0.38
[2]; [4]
  EC50: 25.6 nM

## CCOc1nn(CC)cc1-c1nnc(SCc2ccc(C(=O)OC)cc2)n1C [SR-01000919746]
[1]; HEK Agonist Activity
  Lipophilic Efficiency (logD): 1.19
  Lipophilic Efficiency (logP): 1.19
  Averaged Max % Response (±St. Dev.): −13.54 ± 17.63%
[1]; [3]
  EC50: > 14.1 µM
[2]
  Averaged Max % Response (±St. Dev.): 101.90 ± 10.65%
[2]; based on logD
  Lipophilic Efficiency (logD): 3.89
[2]; based on logP
  Lipophilic Efficiency (logP): 3.89
[2]; fitted dose-response curve
  Hill Slope: 0.63
[2]; ligand efficiency
  Efficiency Ligand: 0.38
[2]; [4]
  EC50: 28.1 nM

## Cc1cc(-c2nnc(NC(=O)CCc3ccccc3)o2)n(C)n1 [SR-01000920602]
[1]; HEK Agonist Activity section
  Lipophilic Efficiency (logD): 3.19
  Lipophilic Efficiency (logP): 3.19
  Averaged Max % Response (±St. Dev.): −28.12 ± 1.91%
[1]; [5]
  EC50: > 14.1 µM
[2]
  Efficiency Ligand: 0.39
  Hill Slope: 0.91
  Lipophilic Efficiency (logD): 4.83
  Lipophilic Efficiency (logP): 4.83
  Averaged Max % Response (±St. Dev.): 90.23 ± 7.66%
[2]; HEK-GPR139 cells
  EC50: 325 nM

## O=C(CCc1ccccc1)Nc1nnc(Cc2cccs2)o1 [SR-01000920660]
[1]; HEK Agonist Activity section
  Lipophilic Efficiency (logD): 1.83
  Lipophilic Efficiency (logP): 1.83
  Averaged Max % Response (±St. Dev.): −18.29 ± 7.41%
[1]; [5]
  EC50: > 14.1 µM
[2]
  Efficiency Ligand: 0.41
  Hill Slope: 1.17
  Lipophilic Efficiency (logD): 3.39
  Lipophilic Efficiency (logP): 3.39
  Averaged Max % Response (±St. Dev.): 83.52 ± 6.71%
[2]; HEK-GPR139 cells
  EC50: 387 nM

## Cn1c(CCc2ccc(F)cc2F)nnc1C1=C(O)N=C2CC=CC21 (stereo not drawn) [SR-01000922914]
[1]; HEK Agonist Activity section
  Lipophilic Efficiency (logD): 0.70
  Lipophilic Efficiency (logP): 0.70
  Averaged Max % Response (±St. Dev.): −4.64 ± 6.81%
[1]; [5]
  EC50: > 14.1 µM
[2]
  Efficiency Ligand: 0.36
  Hill Slope: 0.68
  Lipophilic Efficiency (logD): 2.32
  Lipophilic Efficiency (logP): 2.32
  Averaged Max % Response (±St. Dev.): 76.15 ± 6.21%
[2]; HEK-GPR139 cells
  EC50: 335 nM

## COc1ccc(CCNC(=O)Nc2ccc3c(c2)CCCN3C(=O)C2CC2)cc1 [SR-01000923125]
[1]; HEK Agonist Activity
  Lipophilic Efficiency (logD): 1.53
  Lipophilic Efficiency (logP): 1.53
  Averaged Max % Response (±St. Dev.): 32.19 ± 4.93%
[1]; [3]
  EC50: > 14.1 µM
[2]
  Averaged Max % Response (±St. Dev.): 81.24 ± 9.74%
[2]; based on logD
  Lipophilic Efficiency (logD): 4.30
[2]; based on logP
  Lipophilic Efficiency (logP): 4.30
[2]; fitted dose-response curve
  Hill Slope: 2.01
[2]; ligand efficiency
  Efficiency Ligand: 0.37
[2]; [4]
  EC50: 23.7 nM

## CCCN1C(=O)CCc2cc(NC(=O)NCCc3ccc(OC)cc3)ccc21 [SR-01000923206]
[1]; HEK Agonist Activity section
  Lipophilic Efficiency (logD): 1.61
  Lipophilic Efficiency (logP): 1.61
  Averaged Max % Response (±St. Dev.): −32.47 ± 4.02%
[1]; HEK Agonist Activity section of Table 4 (parental HEK counterscreen)
  EC50: > 14.1 µM
[2]
  Efficiency Ligand: 0.31
  Hill Slope: 1.67
  Lipophilic Efficiency (logD): 2.98
  Lipophilic Efficiency (logP): 2.98
  Averaged Max % Response (±St. Dev.): 74.00 ± 9.00%
[2]; HEK-GPR139 cells
  EC50: 604 nM

## Cc1cccc(NC(=O)NCCc2ccc3c(c2)CCCN3C)c1 [SR-01000923247]
[1]; HEK Agonist Activity
  Lipophilic Efficiency (logD): 0.63
  Lipophilic Efficiency (logP): 0.63
  Averaged Max % Response (±St. Dev.): 20.62 ± 4.90%
[1]; [3]
  EC50: > 14.1 µM
[2]
  Averaged Max % Response (±St. Dev.): 95.66 ± 12.25%
[2]; based on logD
  Lipophilic Efficiency (logD): 3.21
[2]; based on logP
  Lipophilic Efficiency (logP): 3.21
[2]; fitted dose-response curve
  Hill Slope: 0.45
[2]; ligand efficiency
  Efficiency Ligand: 0.43
[2]; [4]
  EC50: 37.1 nM

## COc1cc(NC(=O)NCCc2ccc3c(c2)CCCN3C)cc(OC)c1 [SR-01000923249]
[1]; HEK Agonist Activity section
  Lipophilic Efficiency (logD): 1.46
  Lipophilic Efficiency (logP): 1.46
  Averaged Max % Response (±St. Dev.): 25.04 ± 3.96%
[1]; [5]
  EC50: > 14.1 µM
[2]
  Averaged Max % Response (±St. Dev.): 93.59 ± 4.95%
[2]; based on logD
  Lipophilic Efficiency (logD): 3.81
[2]; based on logP
  Lipophilic Efficiency (logP): 3.81
[2]; fitted dose-response curve
  Hill Slope: 0.82
[2]; ligand efficiency
  Efficiency Ligand: 0.37
[2]; [4]
  EC50: 62.9 nM
